Numbers after ± are expanded uncertainties.
Columns and labels:
[1] = Molar enthalpy of transition or fusion; conditions: Crystal; DSC
[2] = Crystal; DTA

Molar enthalpy of transition or fusion [1]: 4.73 ± 0.179 kcal/mol
Triple point temperature [2]: 405.06 ± 0.39 K
SMILES: N#Cc1nccnc1C#N [2,3-pyrazinedicarbonitrile]

— the NIST ThermoML archive (doi:10.1016/j.jct.2005.07.006)
